Measurements: patent US20140120180A1, “METAL COMPOUNDS MIXED OR SULPHATED, AS PHOSPHATE BINDERS” (CYTOCHROMA DEVELOPMENT INC., priority 1997, published 2014)
Values joined by “and” are separate entries in the source; they are usually repeats but may differ in a detail not shown here. Equal entries are not always repeated.

Columns and labels:
[1] = Body weight and faecal hydration of rats fed binder in diet; conditions: rat, in vivo
Method: Total faecal samples from each animal were mixed to ensure a homogeneity and duplicate one gram aliquots weighed. The percentage hydration of the stool was calculated following freeze drying to constant weight.
Following feeding with the modified diets for 7 days, animals were transferred to metabowls for collection of total 24 hour faecal and urine excretion.

[2] = Phosphate binding capacity, 3.2 mmol compound in 25 ml 20 mmol l^-1 phosphate buffer (Example 1)
Method: In Table 1, the values indicate respective percentage phosphate binding capacity at each of pH3, pH7 and pH8, n indicating the number of trials made for each compound.
The phosphate binding capacity was measured by mixing 3.2 mmol of the compound with 25 ml of 20 mmol l^−1 phosphate buffer for 30 min at 25° C. For all compounds except CT2000, which compounds were dry powders, the compounds were merely weighed and dosed. For CT2000, the slurry was dosed in an amount such as to give an equivalent of 1 g of a powder dried to constant weight at 40° C. Sodium phosphate and sodium hydrogen phosphate were mixed to provide respective phosphate solutions at pH3, 7 and 8 (HCl being added to provide pH3). […] The results are shown in Table 1, in which n refers to the number of observations and the values as the % of phosphate precipitated out of solution, calculated as follows:
where • x=mmol phosphate in solution after precipitation; and • y=mmol phosphate in solution without precipitation.

[3] = Measurement of phosphate binding M4: 1 g in 25 ml 40 mmol l^-1 phosphate buffer, pH 3-8 (Examples 3 and 4)
[4] = rat, in vivo
[5] = Urine and faecal phosphate excretion in rats fed binder in diet; conditions: rat, in vivo
[6] = Phosphate binding in food, Method 3 (food slurry in 0.01 M HCl)
[7] = Phosphate binding capacity Method 2: as Method 1 but 20 mmol l^-1 phosphate buffer, increasing weight of compound
[8] = 3.2 mmol compound, 25 ml 20 mmol l^-1 phosphate buffer, 30 min, 25° C.

Compound | mean weight gain [1] | percentage phosphate binding capacity, pH 3 [2] [%] | percentage phosphate binding capacity, pH 7 [2] [%] | percentage phosphate binding capacity, pH 8 [2] [%] | increase in phosphate binding at pH 3 compared to pH 8 [3] [fold] | Percentage phosphate binding at pH 3 ([3]; pH 3) | Percentage phosphate binding at pH 5 ([3]; pH 5) | Percentage phosphate binding at pH 7 ([3]; pH 7) | Percentage phosphate binding at pH 8 ([3]; pH 8) | Serum aluminium [4] [µmol/L] | Serum calcium [4] | Serum iron [4] | Urine aluminium [4] [µg] | Total faecal phosphate [5] | Urine phosphate [5] [µmol] | faecal hydration compared to the controls [1] | other results
O=C([O-])[O-].[Ca+2] [CaCO3, calcium carbonate] | 38-53 grams | 15.3 ± 0.5 | 9.7 ± 1.8 | 2.4 ± 1.8 | 5.9 | 69% and 72% | 63% and 70% | 30% and 43% | 8% and 16% | 0.33 ± 0.05 | 2.93 ± 0.09 (n = 4)β mmol l^−1 | 41.9 ± 10.8 (n = 4) mmol l^−1 | 0.50 ± 0.21 | 213 ± 16 μmol g^−1 dry weight faeces | 857 ± 25 | – | –
O.O.O=S(=O)([O-])[O-].[Ca+2] [CaSO4•2H2O, Calcium Sulphate Dihydrate] | – | – | – | – | – | – | – | – | – | – | – | – | – | – | – | – | Percentage phosphate bound at pH 3 ([3]; pH 3): 0%; Percentage phosphate bound at pH 5 ([3]; pH 5): 0%; Percentage phosphate bound at pH 7 ([3]; pH 7): 57%; Percentage phosphate bound at pH 8 ([3]; pH 8): 89%
[Ce+3].[OH-].[OH-].[OH-] [Ce(OH)3] | – | – | – | – | – | – | – | – | – | – | – | – | – | – | – | – | percentage phosphate binding capacity, pH 3 [2, 8]: 69.8 ± 7.5%; percentage phosphate binding capacity, pH 7 [2, 8]: 57.8 ± 8.9%; percentage phosphate binding capacity, pH 8 [2, 8]: 60.5 ± 1.5%
[Mg+2].[OH-].[OH-] [Mg(OH)2, magnesium hydroxide] | 38-53 grams | 61.1 ± 7.5 | 45.7 ± 5.9 | 12.5 ± 3.7 | 3.7 | 81% and 87% | 82% and 80% | 54% and 58% | 17% and 28% | 0.35 ± 0.08 | 2.58 ± 0.05 (n = 3) mmol l^−1 | 29.4 ± 7.9 (n = 3) mmol l^−1 | 0.17 ± 0.07 | 183 ± 17 μmol g^−1 dry weight faeces | 65 ± 53 | none of the animal groups treated with Mg(OH)2, CT 100 or CTFeMg showed an increase in faecal hydration compared to the controls | phosphate binding in food, comparison [6]: not the best when used in food; urinary magnesium excretion, comparison between groups [4]: significantly higher than the control group or animals treated with any other binder; phosphate binding at pH 3, comparison [7]: best phosphate binder
Al2Mg6(OH)16CO3.4H2O [CT100] | 38-53 grams | – | – | – | – | – | – | – | – | – | – | – | – | – | – | none of the animal groups treated with Mg(OH)2, CT 100 or CTFeMg showed an increase in faecal hydration compared to the controls | –
